# According to patent publication US10221177B2 (HYDRA BIOSCIENCES, INC., priority 2014, dated 2019):
# Experiments:
# human TRPA1 = human TRPA1 (Homo sapiens (Human), UniProt O75762); experiment: In vitro inhibition of human TRPA1, whole cell patch configuration; type: cell-based; conditions: current activation 10 μM AITC, tested concentrations 320 pM to 3.2 μM, read-out: hTRPA1 IC50
# Summary of the method: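 Compound antagonism measured from voltage ramps (±100 or ±80 mV, 400 ms, every 4 s from −40 mV), analysed at −80 and 80 mV, or at constant −60 mV. HEPES-buffered NaCl bath, pH 7.4, EGTA or 2 mM Ca2+; temperature set by perfusion, within ±2° C; no junction-potential correction.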
# [1] = tested on: formalin-induced pain behaviors in the rat; experiment: Formalin-induced pain test (formalin model), duration of pain behaviors; type: in vivo
# Method: Exemplary compounds of the invention were tested in the formalin-induced pain test reported by Dubuisson et al., Pain 1977 December; 4(2):161-74 (incorporated herein by reference in its entirety). Briefly, dilute formalin (50 μL of 3% formalin) was injected into the plantar surface of the hind paw of a rat. […] The individual responsible for counting the pain behaviors in a particular study was blinded to the treatment groups.
# The initial phase (Phase I: 0-5 min) is thought to have a significant component that is dependent upon direct activation of afferent fibers by formalin and functional TRPA1 (McNamara et al., 2007).
# Investigators studied oral administration of compounds of the invention at the doses presented in Table 3 on pain behaviors in the formalin model in the rat. Compounds were formulated as solutions in water with various solvents and excipients including dimethyl sulfoxide (DMSO), polyethylene glycol (15)-hydroxystearate (Solutol®, Sigma-Aldrich), caprylocaproyl macrogol-8 glyceride (Labrasol®, Sigma-Aldrich), polysorbate-80 (Tween®-80, Sigma-Aldrich), and polyoxyl 35 castor oil (Cremophor® EL, BASF Corp.); or suspensions in methylcellulose as indicated in Table 3. Animals were dosed orally with the vehicle, or compounds of the invention one hour prior to intraplantar formalin. […] A decrease over Vehicle indicates a positive result. P values, when indicated, indicate significance compared Vehicle.
# [2] = tested on: CFA-induced cold hypersensitivity of the hind paw; experiment: CFA-induced pain test, cold hypersensitivity (cold plate paw withdrawal latency); type: in vivo; conditions: cold plate 1° C.; for Average PWL Post-Treatment / PWL Change: 1-2 hour pre-treatment; for Average PWL Post-CFA: baseline before dosing
# Method: Embodiments of the invention may be efficacious in the treatment of inflammatory pain. Compounds of the invention were tested by the CFA-induced pain test method. Compounds were formulated as solutions in water with various solvents and excipients including dimethyl sulfoxide (DMSO), polyethylene glycol (15)-hydroxystearate (Solutol®, Sigma-Aldrich), caprylocaproyl macrogol-8 glyceride (Labrasol®, Sigma-Aldrich), polysorbate-80 (Tween®-80, Sigma-Aldrich), and polyoxyl 35 castor oil (Cremophor® EL, BASF Corp.); or suspensions in methylcellulose as indicated in Table 3 for oral delivery. Briefly, the hind paw was sensitized to cold temperature (allodynic) by administering 0.1 mL of Complete Freund's Adjuvant (CFA) to the right hind paw. Three days later, the time taken for the animal to lift its CFA-injected paw was recorded compared to its un-injected normal left hind paw. […] To avoid tissue damage the maximum cut-off time was 5 minutes. Animals that were allodynic (average PWL to the first three pain behaviors <150 seconds for the CFA-injected hind paw: ˜≥50% difference between the normal and CFA-injected paw) were included in the study and subsequently randomized across treatment groups. The following day, the animals were dosed orally under blinded conditions. Following the 1-2 hour pre-treatment time, the post-dose PWL readings were again taken. The efficacy of the drug treatment was assessed by comparing the PWL in the drug treatment animals to those animals that receive the vehicle. P values, when indicated, indicate significance compared Vehicle.
# [3] = 10 mg/kg PO one hour prior to formalin, solution in 4% DMSO, 5% Tween-80, 20% Cremophor EL, 71% water
# [4] = 0.3 mg/kg PO, solution in 4% DMSO, 5% Tween-80, 20% Cremophor EL, and 71% water
# [5] = 1 mg/kg PO, solution in 4% DMSO, 5% Tween-80, 20% Cremophor EL, and 71% water
# [6] = 3 mg/kg PO, solution in 4% DMSO, 5% Tween-80, 20% Cremophor EL, and 71% water
# [7] = group 0.3 mg/kg PO, solution in 4% DMSO, 5% Tween-80, 20% Cremophor EL, and 71% water
# [8] = group 1 mg/kg PO, solution in 4% DMSO, 5% Tween-80, 20% Cremophor EL, and 71% water
# [9] = group 3 mg/kg PO, solution in 4% DMSO, 5% Tween-80, 20% Cremophor EL, and 71% water
# [10] = 1 mg/kg PO one hour prior to formalin, solution in 4% DMSO, 5% Tween-80, 20% Cremophor EL, 71% water
# [11] = 3 mg/kg PO one hour prior to formalin, solution in 4% DMSO, 5% Tween-80, 20% Cremophor EL, 71% water
# [12] = 1 mg/kg PO one hour prior to formalin, suspension in 0.5% methylcellulose
# [13] = 3 mg/kg PO one hour prior to formalin, suspension in 0.5% methylcellulose
# [14] = 10 mg/kg PO one hour prior to formalin, suspension in 0.5% methylcellulose
# [15] = 1 mg/kg PO, suspension in 0.5% methylcellulose
# [16] = 3 mg/kg PO, suspension in 0.5% methylcellulose
# [17] = 10 mg/kg PO, suspension in 0.5% methylcellulose
# Chain of human TRPA1 (O75762 whole entry, the tested form may be a part): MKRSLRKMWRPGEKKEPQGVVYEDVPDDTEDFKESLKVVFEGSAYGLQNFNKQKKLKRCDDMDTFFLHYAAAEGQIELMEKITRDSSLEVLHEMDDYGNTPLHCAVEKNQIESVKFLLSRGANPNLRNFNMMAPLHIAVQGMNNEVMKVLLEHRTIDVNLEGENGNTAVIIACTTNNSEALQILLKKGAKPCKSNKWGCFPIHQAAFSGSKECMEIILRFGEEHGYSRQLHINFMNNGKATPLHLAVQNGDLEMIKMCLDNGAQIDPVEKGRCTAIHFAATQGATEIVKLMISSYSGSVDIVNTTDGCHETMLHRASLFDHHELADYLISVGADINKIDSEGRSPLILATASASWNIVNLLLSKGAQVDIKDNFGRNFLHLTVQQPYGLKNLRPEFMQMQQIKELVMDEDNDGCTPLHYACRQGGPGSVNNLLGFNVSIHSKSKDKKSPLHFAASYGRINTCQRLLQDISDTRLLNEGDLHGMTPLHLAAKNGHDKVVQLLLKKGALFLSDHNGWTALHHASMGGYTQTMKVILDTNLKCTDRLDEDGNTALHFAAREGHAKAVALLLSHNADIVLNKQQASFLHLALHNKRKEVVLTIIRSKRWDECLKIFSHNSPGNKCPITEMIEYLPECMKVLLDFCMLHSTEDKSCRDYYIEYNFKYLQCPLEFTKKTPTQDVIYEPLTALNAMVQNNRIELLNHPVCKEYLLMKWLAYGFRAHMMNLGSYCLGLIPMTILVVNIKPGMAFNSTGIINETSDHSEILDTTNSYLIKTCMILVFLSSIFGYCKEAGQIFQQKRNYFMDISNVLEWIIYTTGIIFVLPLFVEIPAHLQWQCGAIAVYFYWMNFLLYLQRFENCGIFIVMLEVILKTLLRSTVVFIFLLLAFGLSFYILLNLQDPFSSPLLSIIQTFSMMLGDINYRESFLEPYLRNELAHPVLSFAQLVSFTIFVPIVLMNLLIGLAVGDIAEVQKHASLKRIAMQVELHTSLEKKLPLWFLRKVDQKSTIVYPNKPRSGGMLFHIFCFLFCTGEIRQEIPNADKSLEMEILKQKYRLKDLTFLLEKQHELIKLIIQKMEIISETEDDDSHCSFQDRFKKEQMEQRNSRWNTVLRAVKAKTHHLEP
SMILES,IC50 (human TRPA1) [nM],"Duration (0-2 Minutes) Average [1, 3] [s]","Duration (0-5 Minutes) Average [1, 3] [s]","Average PWL Post-Treatment [2, 4]","PWL Change [2, 4] [s]","Average PWL Post-Treatment [2, 5]","PWL Change [2, 5] [s]","Average PWL Post-Treatment [2, 6]","PWL Change [2, 6] [s]","Average PWL Post-CFA [2, 7]","Average PWL Post-CFA [2, 8]","Average PWL Post-CFA [2, 9]","Duration (0-2 Minutes) Average [1, 10] [s]","Duration (0-5 Minutes) Average [1, 10] [s]","Duration (0-2 Minutes) Average [1, 11] [s]","Duration (0-5 Minutes) Average [1, 11] [s]",other results
"C[C@@H](C(=O)Nc1csc(-c2cnc(N3CC4CC4C3)nc2)n1)n1cnc2c1c(=O)n(CC#N)c(=O)n2C (stereo partly drawn) [Compound 34, (2S)—N-(2-(2-(3-azabicyclo[3.1.0]hexan-3-yl)pyrimidin-5-yl)thiazol-4-yl)-2-(1-(cyanomethyl)-3-methyl-2,6-dioxo-2,3-dihydro-1H-purin-7(6H)-yl)propanamide]",1,34.9,154.6,185.6,80.7,205.4,107.4,272.6,169.0,104.9,98.0,103.6,,,,,
"CC(=O)Cn1c(=O)c2c(ncn2[C@@H](C)C(=O)Nc2ccnc(-c3cnc(N4CC5C(C4)C5(F)F)nc3)n2)n(C)c1=O (stereo partly drawn) [Compound 61, (2S)—N-(2′-(6,6-difluoro-3-azabicyclo[3.1.0]hexan-3-yl)-[2,5′-bipyrimidin]-4-yl)-2-(3-methyl-2,6-dioxo-1-(2-oxopropyl)-2,3-dihydro-1H-purin-7(6H)-yl)propanamide]",8,52.8,120.0,157.1,60.9,235.4,139.4,278.5,182.7,96.2,96.0,95.8,89.4,149.3,90.3,152.3,
"CC(=O)Cn1c(=O)c2c(ncn2[C@@H](C)C(=O)Nc2cncc(-c3cnc(N4CC5C(C4)C5(F)F)nc3)n2)n(C)c1=O (stereo partly drawn) [Compound 74, (2S)—N-(6-(2-(6,6-difluoro-3-azabicyclo[3.1.0]hexan-3-yl)pyrimidin-5-yl)pyrazin-2-yl)-2-(3-methyl-2,6-dioxo-1-(2-oxopropyl)-2,3-dihydro-1H-purin-7(6H)-yl)propanamide]",6,62.3,152.6,160.9,69.9,271.3,181.0,273.2,182.3,91.1,90.4,90.9,94.8,169.0,78.3,172.9,
"CC(=O)Cn1c(=O)c2c(ncn2[C@@H](C)C(=O)Nc2csc(-c3ccc(N4CC5C(C4)C5(F)F)nc3)n2)n(C)c1=O (stereo partly drawn) [Compound 79, (2S)—N-(2-(6-(6,6-difluoro-3-azabicyclo[3.1.0]hexan-3-yl)pyridin-3-yl)thiazol-4-yl)-2-(3-methyl-2,6-dioxo-1-(2-oxopropyl)-2,3-dihydro-1H-purin-7(6H)-yl)propanamide]",3,,,,,,,,,,,,,,,,"Duration (0-2 Minutes) Average [1, 12]: 86.1 s; Duration (0-5 Minutes) Average [1, 12]: 169.8 s; Duration (0-2 Minutes) Average [1, 13]: 86.5 s; Duration (0-5 Minutes) Average [1, 13]: 151.1 s; Duration (0-2 Minutes) Average [1, 14]: 77.3 s; Duration (0-5 Minutes) Average [1, 14]: 142.5 s; Average PWL Post-Treatment [2, 15]: 140.2; PWL Change [2, 15]: 38.0 s; Average PWL Post-Treatment [2, 16]: 201.8; PWL Change [2, 16]: 99.6 s; Average PWL Post-Treatment [2, 17]: 231.5; PWL Change [2, 17]: 129.3 s; Average PWL Post-CFA ([2]; group 1 mg/kg PO, suspension in 0.5% methylcellulose): 102.2; Average PWL Post-CFA ([2]; group 3 mg/kg PO, suspension in 0.5% methylcellulose): 102.2; Average PWL Post-CFA ([2]; group 10 mg/kg PO, suspension in 0.5% methylcellulose): 102.3"
"CC(=O)Cn1c(=O)c2c(ncn2[C@@H](C)C(=O)Nc2cccc(-c3cnc(C)c(C(F)(F)F)c3)n2)n(C)c1=O [Compound 97, (S)-2-(3-methyl-2,6-dioxo-1-(2-oxopropyl)-2,3-dihydro-1H-purin-7(6H)-yl)-N-(6′-methyl-5′-(trifluoromethyl)-[2,3′-bipyridin]-6-yl)propanamide]",5,56.8,185.4,194.7,77.3,262.7,149.8,260.8,157.3,117.3,112.9,103.5,69.3,162.4,78.5,175.3,
"Cc1noc(Cn2c(=O)c3c(ncn3[C@@H](C)C(=O)Nc3cccc(-c4cnc(C(F)(F)F)nc4)n3)n(C)c2=O)n1 [Compound 104, (S)-2-(3-methyl-1-((3-methyl-1,2,4-oxadiazol-5-yl)methyl)-2,6-dioxo-2,3-dihydro-1H-purin-7(6H)-yl)-N-(6-(2-(trifluoromethyl)pyrimidin-5-yl)pyridin-2-yl)propanamide]",15,56.6,128.9,190.0,84.9,295.1,190.9,281.7,176.8,105.1,104.2,104.9,98.5,167.9,70.9,140.0,
